From paper PMC4657912, “Purification and Characterization of a Novel NAD(P)^+-Farnesol Dehydrogenase from Polygonum minus Leaves” (PLoS ONE, 2015)

Assays:
[1] = tested on: T1, P. minus farnesol dehydrogenase; NAD(P)+-dependent farnesol dehydrogenase; assay: NADH formation at […] nm, Lineweaver-Burk; format: biochemical, Persicaria minor; conditions: 100 mM glycine-NaOH pH 9.5, 35 C, read-out: K m value
T1 construct: native, purified from leaves; gene not cloned

[2] = tested on: T1, P. minus farnesol dehydrogenase; NAD(P)+-dependent farnesol dehydrogenase; assay: NADPH formation at […] nm, Lineweaver-Burk; format: biochemical, Persicaria minor; conditions: 1.0 mM trans,trans-farnesol (standard assay), 100 mM glycine-NaOH pH 9.5, 35 C; substrate range stated 0.5-1.5 mM, extrapolated; read-out: K m value
[3] = 1.0 mM NAD+ (standard assay), oxidation

SMILES	Km [1, 3]	other results
CC(C)=CCC/C(C)=C/CC/C(C)=C/CO [Trans, trans-farnesol, trans,trans-3,7,11-trimethyl-2,6,10-dodecatrien-1-ol]	170 µM	–
CC(C)=CCC/C(C)=C\CC/C(C)=C\CO [Cis, cis-farnesol]	420 µM	–
NC(=O)c1ccc[n+]([C@@H]2O[C@H](COP(=O)(O)OP(=O)(O)OC[C@H]3O[C@@H](n4cnc5c(N)ncnc54)[C@H](OP(=O)(O)O)[C@@H]3O)[C@@H](O)[C@H]2O)c1 [NADP^+]	–	Km [2]: 40000 µM
NC(=O)c1ccc[n+]([C@@H]2O[C@H](COP(=O)(O)OP(=O)(O)OC[C@H]3O[C@@H](n4cnc5c(N)ncnc54)[C@H](O)[C@@H]3O)[C@@H](O)[C@H]2O)c1 [NAD^+]	–	Km ([1]; 1.0 mM trans,trans-farnesol (standard assay)): 740 µM
CC(C)=CCC/C(C)=C/CC/C(C)=C\CO [Cis, trans-farnesol]	330 µM	–
C=C(C)[C@@H]1CC=C(CO)CC1 [(S)-Perillyl alcohol]	770 µM	–
C=CC(C)(O)CCC=C(C)CCC=C(C)C (stereo not shown) [nerolidol]	1000 µM	–
CC(C)=CCC/C(C)=C/CO [Geraniol, (trans)-3,7-dimethyl-2,6-octadien-1-ol]	–	Km ([1]; 1.0 mM NAD+ (standard assay), oxidation, substrate range 0.5-1.5 mM, extrapolated): 12500 µM

Continued, in another order:

Km [1, 3]	SMILES	other results
710 µM	C=C(C)C1CC=C(C)C(O)C1 (stereo not shown) [Carveol]	–
1040 µM	OC/C=C/c1ccccc1 [Cinnamyl alcohol]	–
